Measured values published in article PMC5485393, “Tailored chondroitin sulfate glycomimetics via a tunable multivalent scaffold for potentiating NGF/TrkA-induced neurogenesis” (Chemical Science, 2014).

Molecular target: NGF (Homo sapiens, UniProt P01138)
Assay: SPR (Biacore T100) kinetic analysis of NGF binding to immobilized glycopeptides
Conditions: for kon: read-out: association rate constant ka of NGF binding (SPR), SEM
Experimental: SPR technology was employed to facilitate quantitative, real-time kinetic analysis of glycopeptide–NGF binding. Biotinylated glycopeptides and CS-E polysaccharides were immobilized on streptavidin-coated surface at normalized levels by molecular weights, and the interactions with NGF were investigated as a function of NGF concentration.
Surface Plasmon Resonance (SPR): Affinity measurements were performed using a Biacore T100
system (GE Healthcare). The CM5 sensor chip was used for all measurements. The sensor was primed
with HBS-EP+ (10 mM HEPES pH 7.4, 150 mM NaCl, 3.4 mM EDTA, 0.005% P20, GE Healthcare)
buffer and was activated using amine coupling through 1:1 mixture of 0.4 M EDC and 0.1 M NHS.
Streptavidin solution (0.008mg/ml) in Acetate 5.0 buffer (GE Healthcare) was used and remaining
activated groups were blocked with 1 M solution of ethanolamine (pH 8.5). The final amount of
streptavidin covalently immobilized on the surface was typically 700 RU. Flow cell 1 (or 3) was used as a
reference to subtract nonspecific binding, drift, and the bulk refractive index, while flow cell 2 (or 4) was
further immobilized with either glycopeptides or CS-E polysaccharides. Either biotinylated glycopeptides
or CS-E polysaccharides (20 nM) were dissolved in HBS-EP+ buffer and were injected to flow cell 2 (or
4) at 30 µL/min until the baseline response increased by 104, 127, and 110 RU, for glycopeptide 5, 1, and
CS-E polysaccharides, respectively. For a given affinity measurement, these series of peptide solutions
were successively injected into the flow cells for 240 seconds of contact time and 800 seconds of
dissociation time using a flow rate of 50 μL/min at 25 °C. Flow cell was regenerated using 2.5 M MgCl2
at 30 μL/min. Association (ka) and dissociation (kd) rate constants were calculated with a 1:1 binding
model using Biacore evaluation software, and KD values were calculated from the ratio of kd to ka. Kinetic

Sequence of NGF (P01138 122-241): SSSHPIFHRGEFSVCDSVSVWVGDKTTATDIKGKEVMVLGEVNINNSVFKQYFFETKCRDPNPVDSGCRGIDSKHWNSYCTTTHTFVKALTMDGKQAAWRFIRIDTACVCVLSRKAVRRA

SMILES | Kd [nM] | kon [M⁻¹ s⁻¹]
COC(=O)[C@@H]1C[C@@H](n2cc(CO[C@@H]3O[C@H](COS(=O)(=O)O)[C@H](OS(=O)(=O)O)[C@H](O[C@@H]4O[C@H](C(=O)O)[C@@H](O)[C@H](O)[C@H]4O)[C@H]3NC(C)=O)nn2)CN1C(=O)[C@@H]1CCCN1C(=O)[C@@H]1CCCN1C(=O)[C@@H]1C[C@@H](n2cc(CO[C@@H]3O[C@H](COS(=O)(=O)O)[C@H](OS(=O)(=O)O)[C@H](O[C@@H]4O[C@H](C(=O)O)[C@@H](O)[C@H](O)[C@H]4O)[C@H]3NC(C)=O)nn2)CN1C(=O)[C@@H]1CCCN1C(=O)[C@@H]1CCCN1C(=O)[C@@H]1C[C@@H](n2cc(CO[C@@H]3O[C@H](COS(=O)(=O)O)[C@H](OS(=O)(=O)O)[C@H](O[C@@H]4O[C@H](C(=O)O)[C@@H](O)[C@H](O)[C@H]4O)[C@H]3NC(C)=O)nn2)CN1C(=O)[C@@H]1CCCN1C(=O)[C@@H]1CCCN1C(=O)[C@@H]1C[C@@H](n2cc(CO[C@@H]3O[C@H](COS(=O)(=O)O)[C@H](OS(=O)(=O)O)[C@H](O[C@@H]4O[C@H](C(=O)O)[C@@H](O)[C@H](O)[C@H]4O)[C@H]3NC(C)=O)nn2)CN1C(=O)[C@@H]1CCCN1C(=O)[C@@H]1CCCN1C(=O)[C@@H]1C[C@@H](n2cc(CO[C@@H]3O[C@H](COS(=O)(=O)O)[C@H](OS(=O)(=O)O)[C@H](O[C@@H]4O[C@H](C(=O)O)[C@@H](O)[C@H](O)[C@H]4O)[C@H]3NC(C)=O)nn2)CN1C(=O)[C@@H]1CCCN1C(=O)[C@@H]1CCCN1C(=O)[C@@H]1C[C@@H](n2cc(CO[C@@H]3O[C@H](COS(=O)(=O)O)[C@H](OS(=O)(=O)O)[C@H](O[C@@H]4O[C@H](C(=O)O)[C@@H](O)[C@H](O)[C@H]4O)[C@H]3NC(C)=O)nn2)CN1C(=O)[C@@H]1CCCN1C(=O)[C@@H]1CCCN1C(=O)[C@@H]1C[C@@H](n2cc(CO[C@@H]3O[C@H](COS(=O)(=O)O)[C@H](OS(=O)(=O)O)[C@H](O[C@@H]4O[C@H](C(=O)O)[C@@H](O)[C@H](O)[C@H]4O)[C@H]3NC(C)=O)nn2)CN1C(=O)[C@@H]1CCCN1C(=O)[C@@H]1CCCN1C(=O)[C@@H]1C[C@@H](n2cc(CO[C@@H]3O[C@H](COS(=O)(=O)O)[C@H](OS(=O)(=O)O)[C@H](O[C@@H]4O[C@H](C(=O)O)[C@@H](O)[C@H](O)[C@H]4O)[C@H]3NC(C)=O)nn2)CN1C(=O)[C@@H]1CCCN1C(=O)[C@@H]1CCCN1C(=O)[C@@H]1C[C@@H](n2cc(CO[C@@H]3O[C@H](COS(=O)(=O)O)[C@H](OS(=O)(=O)O)[C@H](O[C@@H]4O[C@H](C(=O)O)[C@@H](O)[C@H](O)[C@H]4O)[C@H]3NC(C)=O)nn2)CN1C(=O)[C@@H]1CCCN1C(=O)[C@@H]1CCCN1C(=O)[C@@H]1C[C@@H](n2cc(CO[C@@H]3O[C@H](COS(=O)(=O)O)[C@H](OS(=O)(=O)O)[C@H](O[C@@H]4O[C@H](C(=O)O)[C@@H](O)[C@H](O)[C@H]4O)[C@H]3NC(C)=O)nn2)CN1C(=O)[C@@H]1CCCN1C(=O)[C@@H]1CCCN1C(=O)[C@@H]1C[C@@H](n2cc(CO[C@@H]3O[C@H](COS(=O)(=O)O)[C@H](OS(=O)(=O)O)[C@H](O[C@@H]4O[C@H](C(=O)O)[C@@H](O)[C@H](O)[C@H]4O)[C@H]3NC(C)=O)nn2)CN1C(=O)[C@@H]1CCCN1C(=O)[C@@H]1CCCN1C(=O)[C@@H]1C[C@@H](n2cc(CO[C@@H]3O[C@H](COS(=O)(=O)O)[C@H](OS(=O)(=O)O)[C@H](O[C@@H]4O[C@H](C(=O)O)[C@@H](O)[C@H](O)[C@H]4O)[C@H]3NC(C)=O)nn2)CN1C(=O)[C@@H]1CCCN1C(=O)[C@@H]1CCCN1C(=O)CCOCCOCCOCCOCCOCCOCCOCCOCCOCCOCCOCCOCCNC(=O)CCCC[C@@H]1SC[C@@H]2NC(=O)N[C@@H]21 [compound 5] | 146 | 13400
COC(=O)[C@@H]1C[C@@H](n2cc(CO[C@@H]3O[C@H](COS(=O)(=O)O)[C@H](OS(=O)(=O)O)[C@H](O[C@@H]4O[C@H](C(=O)O)[C@@H](O)[C@H](O)[C@H]4O)[C@H]3NC(C)=O)nn2)CN1C(=O)[C@@H]1C[C@@H](n2cc(CO[C@@H]3O[C@H](COS(=O)(=O)O)[C@H](OS(=O)(=O)O)[C@H](O[C@@H]4O[C@H](C(=O)O)[C@@H](O)[C@H](O)[C@H]4O)[C@H]3NC(C)=O)nn2)CN1C(=O)[C@@H]1C[C@@H](n2cc(CO[C@@H]3O[C@H](COS(=O)(=O)O)[C@H](OS(=O)(=O)O)[C@H](O[C@@H]4O[C@H](C(=O)O)[C@@H](O)[C@H](O)[C@H]4O)[C@H]3NC(C)=O)nn2)CN1C(=O)[C@@H]1C[C@@H](n2cc(CO[C@@H]3O[C@H](COS(=O)(=O)O)[C@H](OS(=O)(=O)O)[C@H](O[C@@H]4O[C@H](C(=O)O)[C@@H](O)[C@H](O)[C@H]4O)[C@H]3NC(C)=O)nn2)CN1C(=O)[C@@H]1C[C@@H](n2cc(CO[C@@H]3O[C@H](COS(=O)(=O)O)[C@H](OS(=O)(=O)O)[C@H](O[C@@H]4O[C@H](C(=O)O)[C@@H](O)[C@H](O)[C@H]4O)[C@H]3NC(C)=O)nn2)CN1C(=O)[C@@H]1C[C@@H](n2cc(CO[C@@H]3O[C@H](COS(=O)(=O)O)[C@H](OS(=O)(=O)O)[C@H](O[C@@H]4O[C@H](C(=O)O)[C@@H](O)[C@H](O)[C@H]4O)[C@H]3NC(C)=O)nn2)CN1C(=O)[C@@H]1C[C@@H](n2cc(CO[C@@H]3O[C@H](COS(=O)(=O)O)[C@H](OS(=O)(=O)O)[C@H](O[C@@H]4O[C@H](C(=O)O)[C@@H](O)[C@H](O)[C@H]4O)[C@H]3NC(C)=O)nn2)CN1C(=O)[C@@H]1C[C@@H](n2cc(CO[C@@H]3O[C@H](COS(=O)(=O)O)[C@H](OS(=O)(=O)O)[C@H](O[C@@H]4O[C@H](C(=O)O)[C@@H](O)[C@H](O)[C@H]4O)[C@H]3NC(C)=O)nn2)CN1C(=O)[C@@H]1C[C@@H](n2cc(CO[C@@H]3O[C@H](COS(=O)(=O)O)[C@H](OS(=O)(=O)O)[C@H](O[C@@H]4O[C@H](C(=O)O)[C@@H](O)[C@H](O)[C@H]4O)[C@H]3NC(C)=O)nn2)CN1C(=O)[C@@H]1C[C@@H](n2cc(CO[C@@H]3O[C@H](COS(=O)(=O)O)[C@H](OS(=O)(=O)O)[C@H](O[C@@H]4O[C@H](C(=O)O)[C@@H](O)[C@H](O)[C@H]4O)[C@H]3NC(C)=O)nn2)CN1C(=O)[C@@H]1C[C@@H](n2cc(CO[C@@H]3O[C@H](COS(=O)(=O)O)[C@H](OS(=O)(=O)O)[C@H](O[C@@H]4O[C@H](C(=O)O)[C@@H](O)[C@H](O)[C@H]4O)[C@H]3NC(C)=O)nn2)CN1C(=O)[C@@H]1C[C@@H](n2cc(CO[C@@H]3O[C@H](COS(=O)(=O)O)[C@H](OS(=O)(=O)O)[C@H](O[C@@H]4O[C@H](C(=O)O)[C@@H](O)[C@H](O)[C@H]4O)[C@H]3NC(C)=O)nn2)CN1C(=O)CCOCCOCCOCCOCCOCCOCCOCCOCCOCCOCCOCCOCCNC(=O)CCCC[C@@H]1SC[C@@H]2NC(=O)N[C@@H]21 [compound 1] | 3570 | 346
